The results in this text go back to US20150285817A1 (priority 2014, published 2015).

Like-named read-outs stand apart in the source and are kept apart here.

The assay has as its system NSCLC patients. The note with it: VeriStrat poor patients, SCR samples.

Excerpt: Briefly, by way of overview, 188 patients were enrolled in the study. Key entry criteria for the study were Stage III/IV NSCLC, treatment-naïve, adenocarcinoma histology, with the patients selected from an Asian population and being either non-smokers or light former smokers. Stratification of the population was based on Eastern Cooperative Oncology Group Performance Status (ECOG PS), smoking history, and gender.
In summary, we obtained pre-treatment serum samples from all 188 patients enrolled in the study described above. The samples were blinded and subject to MALDI-TOF mass-spectrometry. The resulting mass spectra were subject to predefined pre-processing steps, described below, and integrated intensity values at pre-defined m/z positions ranges, (i.e., feature values) in the pre-processed spectra were obtained. […]
The pre-treatment serum samples used in the foregoing analysis were largely derived from patient blood samples originally drawn immediately prior to drug dosing (hereafter called “C1D1” samples) in order to define baselines for drug pharmacokinetics and pharmacodynamics. Subsequently, a set of blood samples was analyzed, these being derived from blood draws taken from 1-12 days (median 4.4 days) prior to drug dosing (hereafter called “SCR” samples) for purposes of establishing patient eligibility for study with respect to blood chemistries.

Turning to `COc1cc2ncnc(Nc3ccc(F)c(Cl)c3)c2cc1OCCCN1CCOCC1` [gefitinib], the “median PFS” value was found to be 4.1 months (EGFR SM+ population) and 2.7 months (ITT population).
